Data: patent US20240316022A1 (TYRA BIOSCIENCES, INC., priority 2021, published 2024)

Experiments:
FGFR4 = molecular target: T1, FGFR4 (Homo sapiens, UniProt P22455); assay: Kinase binding assay (kinase-tagged T7 phage, qPCR), Kd; conditions: read-out: FGFR4 (Kd nM)
T1 construct: made in house; host or cells: E. coli derived from BL21, infected with T7 phage

FGFR3 = molecular target: T2, FGFR3 (Homo sapiens, UniProt P22607); assay: as above; conditions: read-out: FGFR3 (Kd nM)
T2 construct: made in house; host or cells: E. coli derived from BL21, infected with T7 phage
T2 sequence (P22607 23-806): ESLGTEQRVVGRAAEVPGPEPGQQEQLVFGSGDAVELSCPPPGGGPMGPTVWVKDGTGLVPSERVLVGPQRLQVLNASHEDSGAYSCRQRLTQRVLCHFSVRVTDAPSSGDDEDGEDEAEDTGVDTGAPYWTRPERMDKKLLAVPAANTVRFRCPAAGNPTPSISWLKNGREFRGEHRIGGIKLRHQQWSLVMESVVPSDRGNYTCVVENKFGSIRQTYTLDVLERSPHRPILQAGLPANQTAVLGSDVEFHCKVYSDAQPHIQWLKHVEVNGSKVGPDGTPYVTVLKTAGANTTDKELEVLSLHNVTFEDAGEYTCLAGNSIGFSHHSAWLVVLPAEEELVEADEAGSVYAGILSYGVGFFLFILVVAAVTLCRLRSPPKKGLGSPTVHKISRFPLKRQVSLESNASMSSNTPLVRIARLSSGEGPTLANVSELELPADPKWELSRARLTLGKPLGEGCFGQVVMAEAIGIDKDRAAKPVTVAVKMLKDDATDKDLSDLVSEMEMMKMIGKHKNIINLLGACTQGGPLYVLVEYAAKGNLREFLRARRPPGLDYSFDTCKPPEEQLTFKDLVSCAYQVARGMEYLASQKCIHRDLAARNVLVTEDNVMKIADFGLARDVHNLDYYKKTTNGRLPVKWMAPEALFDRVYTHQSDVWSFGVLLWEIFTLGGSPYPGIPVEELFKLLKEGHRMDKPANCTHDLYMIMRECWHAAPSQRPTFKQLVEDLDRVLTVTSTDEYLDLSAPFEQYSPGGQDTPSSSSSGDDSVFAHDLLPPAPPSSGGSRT

BCR-FGFR1 Ba/F3 = molecular target: T3, BCR-FGFR1 Ba/F3 (Homo sapiens, UniProt P11362); assay: Ba/F3 cell viability assay (CellTiter-Glo 2.0); type: cell-based; conditions: Ba/F3 BCR-FGFR1 cells, 48 hours
T3 construct: host or cells: Ba/F3; the other entry of the earlier key: BCR (P11274, Breakpoint cluster region protein)
T3 sequence (P11362 478-767 limits assumed): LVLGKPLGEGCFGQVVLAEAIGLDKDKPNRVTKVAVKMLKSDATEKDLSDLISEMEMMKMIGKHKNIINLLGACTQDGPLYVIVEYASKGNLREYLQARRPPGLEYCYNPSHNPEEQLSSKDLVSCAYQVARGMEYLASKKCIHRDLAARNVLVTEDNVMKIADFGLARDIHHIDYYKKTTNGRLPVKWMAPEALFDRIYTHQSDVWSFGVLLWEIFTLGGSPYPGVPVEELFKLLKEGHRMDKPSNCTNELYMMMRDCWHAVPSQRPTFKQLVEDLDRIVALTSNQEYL
Text: (§1) Experimental Purpose: Recombinant kinase fusions are transduced into parental Ba/F3, which becomes dependent upon this constitutive kinase activity for IL3-independent survival. Inhibition of kinase activity leads to cell death, which is monitored using CellTiter-Glo® 2.0 (Promega) which measures intracellular ATP concentration that in turn serves as a marker for viability. BCR-FGFR4 Ba/F3, BCR-FGFR1 Ba/F3 and FGFR3-BAIAP2L1 Ba/F3 were obtained from Advanced Cellular Dynamics (Seattle, WA)
(§2) Cell Viability Assay Procedure: Cell Titer-Glo® 2.0 Luminescent cell viability assay reagent was purchased from Promega (Madison, WI). BCR-FGFR4 Ba/F3, BCR-FGFR1 Ba/F3 and FGFR3-BAIAP2L1 Ba/F3 cells were cultured in RPMI1640 media supplemented with 10% fetal bovine serum. Cultures were maintained at 37° C. in a humidified atmosphere of 5% CO2 and 95% air.
(§3) Cells were plated in 96-well clear bottom/white plates (Corning #3903) at 10,000 cells/well in 100 μl of media, incubated overnight. The next day, test compound DMSO stock solutions were made at 10 mM and 2 μM final concentration. Compounds were then added to cells in a 9-dose, 10-fold dilution series starting at 30 μM with an HP 300e Digital Dispenser (each dose was applied in triplicate). DMSO was backfilled to each well up to 301 nL total volume of test compound+DMSO, and a total of 301 nL DMSO was added to a control/no test compound well in triplicate. The cells in cell culture plates were incubated with the compounds at 37° C. and 5% CO2 for 48 hours. Then 50 μl of Cell Titer Glo 2.0 reagent was added to each well of the cell culture plates. The contents were covered from light and mixed on an orbital shaker at room temperature for 10 min. Luminescence was recorded by a Synergy H1 Microplate Reader (Biotek, Winooski, VT). Cells were assessed as a percentage of DMSO only treated control cells. Curves were plotted and IC50 values were calculated using the GraphPad Prism 8 program based on a sigmoidal dose-response equation (4 parameter).

FGFR3-BAIAP2L1 Ba/F3 = molecular target: T4, FGFR3-BAIAP2L1 Ba/F3 (Homo sapiens, UniProt P22607); assay: Ba/F3 cell viability assay (CellTiter-Glo 2.0); type: cell-based; conditions: Ba/F3 FGFR3-BAIAP2L1 cells, 48 hours
T4 construct: host or cells: Ba/F3; the other entry of the earlier key: BAIAP2L1 (Q9UHR4, BAR/IMD domain-containing adapter protein 2-like 1)
T4 sequence (P22607 397-758 limits assumed): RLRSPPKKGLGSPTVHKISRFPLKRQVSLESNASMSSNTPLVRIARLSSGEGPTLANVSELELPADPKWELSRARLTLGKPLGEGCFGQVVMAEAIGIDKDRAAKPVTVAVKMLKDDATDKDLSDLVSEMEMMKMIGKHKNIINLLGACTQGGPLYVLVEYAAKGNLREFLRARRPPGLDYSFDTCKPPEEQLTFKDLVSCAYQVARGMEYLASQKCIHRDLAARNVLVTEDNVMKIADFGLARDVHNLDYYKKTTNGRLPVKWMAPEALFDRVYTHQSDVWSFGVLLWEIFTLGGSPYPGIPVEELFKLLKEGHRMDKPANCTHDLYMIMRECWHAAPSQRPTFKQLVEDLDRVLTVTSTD
Text: as §1, §2, §3

FGFR1 = molecular target: T5, FGFR1 (Homo sapiens, UniProt P11362); assay: Kinase binding assay (kinase-tagged T7 phage, qPCR), Kd; conditions: read-out: FGFR1 (Kd nM)
T5 construct: made in house; host or cells: E. coli derived from BL21, infected with T7 phage
T5 sequence (P11362 22-822): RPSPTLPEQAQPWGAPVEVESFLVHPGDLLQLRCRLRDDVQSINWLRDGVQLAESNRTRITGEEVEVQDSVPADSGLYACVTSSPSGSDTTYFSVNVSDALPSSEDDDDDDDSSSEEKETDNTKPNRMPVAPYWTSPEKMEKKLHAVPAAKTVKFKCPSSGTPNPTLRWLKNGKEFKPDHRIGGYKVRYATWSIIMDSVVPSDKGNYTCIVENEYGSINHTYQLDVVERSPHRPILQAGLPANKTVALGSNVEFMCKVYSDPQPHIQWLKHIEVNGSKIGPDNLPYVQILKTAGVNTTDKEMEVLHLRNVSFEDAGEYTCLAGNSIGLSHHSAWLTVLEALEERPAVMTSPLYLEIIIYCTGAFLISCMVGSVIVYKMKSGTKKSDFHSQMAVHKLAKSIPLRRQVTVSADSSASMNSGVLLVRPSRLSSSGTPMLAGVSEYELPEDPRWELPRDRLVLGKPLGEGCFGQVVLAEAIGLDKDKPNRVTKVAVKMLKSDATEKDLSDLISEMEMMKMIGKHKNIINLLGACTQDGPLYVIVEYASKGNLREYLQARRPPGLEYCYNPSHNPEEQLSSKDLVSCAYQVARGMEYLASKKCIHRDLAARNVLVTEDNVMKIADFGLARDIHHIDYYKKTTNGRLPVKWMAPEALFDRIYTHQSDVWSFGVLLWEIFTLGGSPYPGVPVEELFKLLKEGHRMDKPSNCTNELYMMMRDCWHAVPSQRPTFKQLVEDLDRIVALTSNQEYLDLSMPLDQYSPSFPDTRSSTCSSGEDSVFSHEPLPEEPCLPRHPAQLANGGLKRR

FGFR2 = molecular target: T6, FGFR2 (Homo sapiens, UniProt P21802); assay: as above; conditions: read-out: FGFR2 (Kd nM)
T6 construct: made in house; host or cells: E. coli derived from BL21, infected with T7 phage
T6 sequence (P21802 22-821): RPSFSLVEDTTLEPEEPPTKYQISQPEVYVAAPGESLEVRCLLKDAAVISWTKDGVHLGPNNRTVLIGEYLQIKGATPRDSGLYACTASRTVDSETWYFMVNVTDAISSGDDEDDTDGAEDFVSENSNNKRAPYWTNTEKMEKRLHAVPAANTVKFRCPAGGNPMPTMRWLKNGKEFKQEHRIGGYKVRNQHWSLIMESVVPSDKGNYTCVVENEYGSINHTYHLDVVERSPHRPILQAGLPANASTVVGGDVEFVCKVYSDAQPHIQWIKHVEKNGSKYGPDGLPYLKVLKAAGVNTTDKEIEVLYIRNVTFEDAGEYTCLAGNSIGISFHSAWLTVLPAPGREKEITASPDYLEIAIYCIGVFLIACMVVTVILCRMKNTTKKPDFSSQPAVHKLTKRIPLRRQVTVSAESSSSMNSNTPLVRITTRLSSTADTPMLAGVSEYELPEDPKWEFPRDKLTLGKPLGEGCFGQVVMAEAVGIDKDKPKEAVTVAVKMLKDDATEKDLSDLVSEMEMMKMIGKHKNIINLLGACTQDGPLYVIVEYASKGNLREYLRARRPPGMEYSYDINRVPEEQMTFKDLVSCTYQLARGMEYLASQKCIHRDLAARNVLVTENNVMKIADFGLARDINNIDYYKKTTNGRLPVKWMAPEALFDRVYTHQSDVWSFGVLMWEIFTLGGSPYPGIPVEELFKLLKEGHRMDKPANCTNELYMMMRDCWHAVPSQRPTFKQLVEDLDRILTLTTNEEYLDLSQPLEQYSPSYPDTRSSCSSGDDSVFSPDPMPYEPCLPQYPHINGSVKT

T1 sequence (P22455 22-802): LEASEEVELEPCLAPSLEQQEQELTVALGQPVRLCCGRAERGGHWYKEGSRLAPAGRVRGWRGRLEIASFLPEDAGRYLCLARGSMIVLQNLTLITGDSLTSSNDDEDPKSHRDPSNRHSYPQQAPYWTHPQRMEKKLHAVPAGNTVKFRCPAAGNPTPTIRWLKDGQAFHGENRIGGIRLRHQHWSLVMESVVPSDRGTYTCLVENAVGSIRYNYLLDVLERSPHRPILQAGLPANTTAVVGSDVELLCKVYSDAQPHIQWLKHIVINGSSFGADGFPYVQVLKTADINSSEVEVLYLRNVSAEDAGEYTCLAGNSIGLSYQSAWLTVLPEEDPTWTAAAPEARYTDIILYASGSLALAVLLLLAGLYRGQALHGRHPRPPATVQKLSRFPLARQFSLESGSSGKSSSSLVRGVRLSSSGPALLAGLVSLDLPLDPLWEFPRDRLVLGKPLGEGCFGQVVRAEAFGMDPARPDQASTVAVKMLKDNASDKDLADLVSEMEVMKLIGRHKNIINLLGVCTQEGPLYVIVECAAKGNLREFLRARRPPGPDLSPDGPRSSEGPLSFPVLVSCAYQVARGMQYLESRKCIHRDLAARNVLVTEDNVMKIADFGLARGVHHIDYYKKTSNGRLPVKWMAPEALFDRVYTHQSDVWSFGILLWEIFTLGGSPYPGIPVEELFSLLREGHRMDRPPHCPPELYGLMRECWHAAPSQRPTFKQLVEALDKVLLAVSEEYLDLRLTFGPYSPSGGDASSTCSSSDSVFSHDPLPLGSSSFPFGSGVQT

| SMILES | Kd (FGFR4) | Kd (FGFR3) | IC50 (BCR-FGFR1 Ba/F3) | IC50 (FGFR3-BAIAP2L1 Ba/F3) | Kd (FGFR1) | Kd (FGFR2) |
| --- | --- | --- | --- | --- | --- | --- |
| CCN1CCC(Oc2ncc(-c3n[nH]c4ccc(O[C@H](C)c5c(Cl)cncc5Cl)cc34)cc2C#N)CC1 [Example 119] | 0.1 to 100 nM | 0.1 to 100 nM | 250 to 1000 nM | 0.1 to 100 nM | 0.1 to 100 nM | 0.1 to 100 nM |
| C[C@@H](Oc1ccc2[nH]nc(-c3cnc4c(c3)N(S(C)(=O)=O)CCO4)c2c1)c1c(Cl)cncc1Cl [Example 137, 7-[5-[(1R)-1-(3,5-dichloro-4-pyridyl)ethoxy]-1H-indazol-3-yl]-1-methylsulfonyl-2,3-dihydropyrido[2,3-b][1,4]oxazine] | 0.1 to 100 nM | 0.1 to 100 nM | 250 to 1000 nM | 0.1 to 100 nM | 250 to 1000 nM | 100 to 250 nM |
| Cc1ncc(Cl)c([C@@H](C)Oc2ccc3[nH]nc(-c4ccc(O[C@@H]5CCOC5)nc4)c3c2)c1Cl [Example 147, 5-((R)-1-(3,5-Dichloro-2-methylpyridin-4-yl)ethoxy)-3-(6-(((R)-tetrahydrofuran-3-yl)oxy)pyridin-3-yl)-1H-indazole] | 0.1 to 100 nM | 0.1 to 100 nM | > 1000 nM | 100 to 250 nM | 0.1 to 100 nM | 0.1 to 100 nM |
| Cc1cc(-c2n[nH]c3ccc(O[C@H](C)c4c(Cl)cnc(C)c4Cl)cc23)cnc1O[C@@H]1CCOC1 [Example 148, 5-((R)-1-(3,5-Dichloro-2-methylpyridin-4-yl)ethoxy)-3-(5-methyl-6-(((R)-tetrahydrofuran-3-yl)oxy)pyridin-3-yl)-1H-indazole] | 0.1 to 100 nM | 0.1 to 100 nM | 250 to 1000 nM | 100 to 250 nM | 250 to 1000 nM | 250 to 1000 nM |
| Cc1ncc(Cl)c([C@@H](C)Oc2ccc3[nH]nc(-c4ccc(O[C@H]5CCOC5)nc4)c3c2)c1Cl [Example 150, 5-[(1R)-1-(3,5-dichloro-2-methyl-4-pyridyl)ethoxy]-3-[6-[(3S)-tetrahydrofuran-3-yl]oxy-3-pyridyl]-1H-indazole] | 0.1 to 100 nM | 0.1 to 100 nM | 250 to 1000 nM | 0.1 to 100 nM | 0.1 to 100 nM | 0.1 to 100 nM |
| Cc1cc(-c2n[nH]c3ccc(O[C@H](C)c4c(Cl)cncc4Cl)cc23)cnc1NC1CCOCC1 [Example 151, (R)-5-(5-(1-(3,5-Dichloropyridin-4-yl)ethoxy)-1H-indazol-3-yl)-3-methyl-N-(tetrahydro-2H-pyran-4-yl)pyridin-2-amine] | 0.1 to 100 nM | 0.1 to 100 nM | 250 to 1000 nM | 0.1 to 100 nM | 100 to 250 nM | 100 to 250 nM |
| C[C@@H](Oc1ccc2[nH]nc(-c3ccc(OC4CC5(C4)CN(S(C)(=O)=O)C5)nc3)c2c1)c1c(Cl)cncc1Cl [Example 152, (R)-5-(1-(3,5-dichloropyridin-4-yl)ethoxy)-3-(6-((2-(methylsulfonyl)-2-azaspiro[3.3]heptan-6-yl)oxy)pyridin-3-yl)-1H-indazole] | 0.1 to 100 nM | 0.1 to 100 nM | 100 to 250 nM | 0.1 to 100 nM | 0.1 to 100 nM | 0.1 to 100 nM |
| Cc1cc(-c2n[nH]c3ccc(O[C@H](C)c4c(Cl)cncc4Cl)cc23)cnc1N[C@H]1CCOC1 [Example 153, 5-(5-((R)-1-(3,5-dichloropyridin-4-yl)ethoxy)-1H-indazol-3-yl)-3-methyl-N-((S)-tetrahydrofuran-3-yl)pyridin-2-amine] | 0.1 to 100 nM | 0.1 to 100 nM | 250 to 1000 nM | 0.1 to 100 nM | 0.1 to 100 nM | 0.1 to 100 nM |
| Cc1ncc(Cl)c([C@@H](C)Oc2ccc3[nH]nc(-c4ccc(N[C@@H]5CCOC5)nc4)c3c2)c1Cl [Example 155, 5-(5-((R)-1-(3,5-Dichloro-2-methylpyridin-4-yl)ethoxy)-1H-indazol-3-yl)-N-((R)-tetrahydrofuran-3-yl)pyridin-2-amine] | 0.1 to 100 nM | 0.1 to 100 nM | 100 to 250 nM | 0.1 to 100 nM | 0.1 to 100 nM | 0.1 to 100 nM |
| Cc1ncc(Cl)c([C@@H](C)Oc2ccc3[nH]nc(-c4ccc(NC5CCOCC5)nc4)c3c2)c1Cl [Example 156] | 0.1 to 100 nM | 0.1 to 100 nM | 100 to 250 nM | 0.1 to 100 nM | 0.1 to 100 nM | 0.1 to 100 nM |
| C[C@@H](Oc1ccc2[nH]nc(-c3ccc4c(c3)COC3(CCN(C5CCC5)CC3)O4)c2c1)c1c(Cl)cncc1Cl [Example 157, (R)-1′-Cyclobutyl-6-(5-(1-(3,5-dichloropyridin-4-yl)ethoxy)-1H-indazol-3-yl)-4H-spiro[benzo[d][1,3]dioxine-2,4′-piperidine]] | 0.1 to 100 nM | 0.1 to 100 nM | 250 to 1000 nM | 0.1 to 100 nM | 0.1 to 100 nM | 0.1 to 100 nM |
| Cc1cc(-c2n[nH]c3ccc(O[C@H](C)c4c(Cl)cncc4Cl)cc23)cnc1N[C@@H]1CCOC1 [Example 158, 5-(5-((R)-1-(3,5-dichloropyridin-4-yl)ethoxy)-1H-indazol-3-yl)-3-methyl-N-((R)-tetrahydrofuran-3-yl)pyridin-2-amine] | 0.1 to 100 nM | 0.1 to 100 nM | 250 to 1000 nM | 0.1 to 100 nM | 0.1 to 100 nM | 100 to 250 nM |
| C[C@@H](Oc1ccc2[nH]nc(-c3ccc(NC4CC5(C4)CN(S(C)(=O)=O)C5)nc3)c2c1)c1c(Cl)cncc1Cl [Example 159, (R)-N-(5-(5-(1-(3,5-dichloropyridin-4-yl)ethoxy)-1H-indazol-3-yl)pyridin-2-yl)-2-(methylsulfonyl)-2-azaspiro[3.3]heptan-6-amine] | 0.1 to 100 nM | 0.1 to 100 nM | 0.1 to 100 nM | 0.1 to 100 nM | 0.1 to 100 nM | 0.1 to 100 nM |
| Cc1ncc(Cl)c([C@@H](C)Oc2ccc3[nH]nc(-c4ccc(N[C@H]5CCOC5)nc4)c3c2)c1Cl [Example 160, 5-[5-[(1R)-1-(3,5-dichloro-2-methyl-4-pyridyl)ethoxy]-1H-indazol-3-yl]-N-[(3S)-tetrahydrofuran-3-yl]pyridin-2-amine] | 0.1 to 100 nM | 0.1 to 100 nM | 100 to 250 nM | 0.1 to 100 nM | 0.1 to 100 nM | 0.1 to 100 nM |
| C[C@@H](Oc1ccc2[nH]nc(-c3ccc(OC4C5CN(S(C)(=O)=O)CC54)nc3)c2c1)c1c(Cl)cncc1Cl (stereo partly drawn) [Example 162, 5-((R)-1-(3,5-dichloropyridin-4-yl)ethoxy)-3-(6-((3-(methylsulfonyl)-3-azabicyclo[3.1.0]hexan-6-yl)oxy)pyridin-3-yl)-1H-indazole] | 0.1 to 100 nM | 0.1 to 100 nM | 100 to 250 nM | 0.1 to 100 nM | 0.1 to 100 nM | 0.1 to 100 nM |
| Cc1ncc(Cl)c([C@@H](C)Oc2ccc3[nH]nc(-c4ccc5c(c4)COC4(CCN(S(C)(=O)=O)CC4)O5)c3c2)c1Cl [Example 163, (R)-6-(5-(1-(3,5-Dichloro-2-methylpyridin-4-yl)ethoxy)-1H-indazol-3-yl)-1′-(methylsulfonyl)-4H-spiro[benzo[d][1,3]dioxine-2,4′-piperidine]] | 100 to 250 nM | 0.1 to 100 nM | 250 to 1000 nM | 0.1 to 100 nM | 100 to 250 nM | 0.1 to 100 nM |
| Cc1cc(-c2n[nH]c3ccc(O[C@H](C)c4c(Cl)cnc(C)c4Cl)cc23)cnc1N[C@@H]1CCOC1 [Example 164, 5-[5-[(1R)-1-(3,5-dichloro-2-methyl-4-pyridyl)ethoxy]-1H-indazol-3-yl]-3-methyl-N-[(3R)-tetrahydrofuran-3-yl]pyridin-2-amine] | 0.1 to 100 nM | 0.1 to 100 nM | > 1000 nM | 0.1 to 100 nM | 250 to 1000 nM | 0.1 to 100 nM |
| C[C@@H](Oc1ccc2[nH]nc(-c3ccc4c(c3)COC3(CCN(S(C)(=O)=O)CC3)O4)c2c1)c1c(Cl)cncc1Cl [Example 165, 6-[5-[(1R)-1-(3,5-dichloro-4-pyridyl)ethoxy]-1H-indazol-3-yl]-1′-methylsulfonyl-spiro[4H-1,3-benzodioxine-2,4′-piperidine]] | 0.1 to 100 nM | 0.1 to 100 nM | 250 to 1000 nM | 0.1 to 100 nM | 0.1 to 100 nM | 0.1 to 100 nM |
